System: T1, Ultra-Glo™ luciferase
T1 construct: gene Firefly luciferase; HisLink purified; starting enzyme also obtained from Promega
Test: luminescence, Michaelis-Menten
Assay type: biochemical
Conditions: 1 mM ATP, Bright-Glo buffer, 25 °C
From the text: luminescence, Michaelis-Menten on Ultra-Glo™ luciferase

Compound | Km [µM]
CC1(C)SC(c2nc3ccc(O)cc3s2)=NC1C(=O)O (racemic) [III-a, 2-(6-Hydroxybenzo[d]thiazol-2-yl)-5,5-dimethyl-4,5-dihydrothiazole-4-carboxylic acid] | 7.47
O=C(O)C1N=C(c2nc3ccc(O)cc3s2)SC12CC2 (racemic) [III-b, 5-(6-Hydroxybenzo[d]thiazol-2-yl)-4-thia-6-azaspiro[2.4]hept-5-ene-7-carboxylic acid] | 1.71
O=C(O)[C@H]1CSC(c2nc3ccc(O)cc3s2)=N1 [LH2, D-luciferin] | 0.49

Source: article PMC7735563, “5,5-Dialkylluciferins are thermal stable substrates for bioluminescence-based detection systems” (PLoS ONE, 2020)
